target: BRD4 (BDI_K57-E168) (Homo sapiens, UniProt O60885); assay: TR-FRET bromodomain binding assay, BRD4 first bromodomain (BDI)
Experimental: A time-resolved fluorescence resonance energy transfer (TR-FRET) assay was used to determine the affinities of compounds of the Examples listed in Table 1 for each bromodomain of BRD4. […] An Alexa647-labeled BET-inhibitor was used as the fluorescent probe in the assay.
(§1) Compound dilution series were prepared in DMSO via an approximately 3-fold serial dilution. Compound dilutions were added directly into white, low-volume assay plates (Perkin Elmer Proxiplate 384 Plus #6008280) using a Labcyte Echo in conjunction with Labcyte Access and Thermo Multidrop CombinL robotics. Compounds were then suspended in eight microliters (μL) of assay buffer (20 mM Sodium Phosphate, pH 6.0, 50 mM NaCl, 1 mM Ethylenediaminetetraacetic acid disodium salt dihydrate, 0.01% Triton X-100, 1 mM DL-Dithiothreitol) containing His-tagged bromodomain, Europium-conjugated anti-His antibody (Invitrogen PV5596) and Alexa-647-conjugated probe.
After a one-hour equilibration at room temperature, TR-FRET ratios were determined using an Envision multilabel plate reader (Ex 340, Em 495/520).
TR-FRET data were normalized to the means of 24 no-compound controls (“high”) and 8 controls containing 1 μM un-labeled probe (“low”). Percent inhibition was plotted as a function of compound concentration and the data were fit with the 4 parameter logistic equation to obtain IC50s. Inhibition constants (Ki) were calculated from the IC50s, probe Kd and probe concentration.
Compound dilution series for Compounds A-E were prepared in DMSO via an approximately 3-fold serial dilution from 0.47 mM to 7.8 nM.
as §1, with “Compound” for “Compound dilution series were prepared in DMSO via an approximately 3-fold serial dilution. Compound”
The final concentration of 1× assay mixture contained 2% DMSO, 8 nM His-tagged bromodomain, 1 nM Europium-conjugated anti-His-tag antibody and 100 nM or 30 nM probe (for BDI or BDII, respectively) and compound concentration in the range of […]-150 μM.
TR-FRET data were normalized to the means of 24 no-compound controls (“high”) and 8 controls containing 1 μM un-labeled probe (“low”). Percent inhibition was plotted as a function of compound concentration and the data were fit with the 4 parameter logistic equation to obtain IC50s. Inhibition constants (Ki) were calculated from the IC50s, probe Kd and probe concentration. Typical Z′ values were between 0.65 and 0.75. The minimum significant ratio was determined to evaluate assay reproducibility (Eastwood et al., (2006) J Biomol Screen, 11: 253-261). The MSR was determined to be 2.03 for BDI and 1.93 for BDII, and a moving MSR (last six run MSR overtime) for both BDI and BDII was typically <3.

Structure (SMILES) | Ki
CCS(=O)(=O)c1ccc(Oc2c(C)cccc2C)c(-c2cn(C)c(=O)cc2O[C@H]2CC[C@H](NC(=O)C3(C)COC3)CC2)c1 [Example 12, N-[trans-4-({5-[2-(2,6-dimethylphenoxy)-5-(ethanesulfonyl)phenyl]-1-methyl-2-oxo-1,2-dihydropyridin-4-yl}oxy)cyclohexyl]-3-methyloxetane-3-carboxamide] | 301 nM
CCS(=O)(=O)Nc1cnc(Oc2c(C)cc(F)cc2C)c(-c2cn(C)c(=O)cc2O[C@H]2CC[C@H](NC(=O)OC)CC2)c1 [Example 17, methyl [trans-4-({5′-[(ethanesulfonyl)amino]-2′-(4-fluoro-2,6-dimethylphenoxy)-1-methyl-6-oxo[1,6-dihydro[3,3′-bipyridine]]-4-yl}oxy)cyclohexyl]carbamate] | 419 nM
CCS(=O)(=O)c1ccc(Oc2c(C)cccc2C)c(-c2cn(C)c(=O)cc2O[C@H]2CC[C@H](NC(=O)C(F)(F)F)CC2)c1 [Example 6, N-[trans-4-({5-[2-(2,6-dimethylphenoxy)-5-(ethanesulfonyl)phenyl]-1-methyl-2-oxo-1,2-dihydropyridin-4-yl}oxy)cyclohexyl]-2,2,2-trifluoroacetamide] | 823 nM
CCS(=O)(=O)c1ccc(Oc2c(C)cccc2C)c(-c2cn(C)c(=O)cc2O[C@H]2CC[C@H](NC(=O)COC)CC2)c1 [Example 9, N-[trans-4-({5-[2-(2,6-dimethylphenoxy)-5-(ethanesulfonyl)phenyl]-1-methyl-2-oxo-1,2-dihydropyridin-4-yl}oxy)cyclohexyl]-2-methoxyacetamide] | 474 nM
CCS(=O)(=O)Nc1ccc(Oc2c(C)cc(F)cc2C)c(-c2cn(C)c(=O)cc2O[C@H]2CC[C@H](NC(=O)OC)CC2)c1 [Example 16, methyl {trans-4-[(5-{5-[(ethanesulfonyl)amino]-2-(4-fluoro-2,6-dimethylphenoxy)phenyl}-1-methyl-2-oxo-1,2-dihydropyridin-4-yl)oxy]cyclohexyl}carbamate] | 313 nM
CCS(=O)(=O)c1ccc(Oc2c(C)cccc2C)c(-c2cn(C)c(=O)cc2O[C@H]2CC[C@H](NC(=O)C(C)(C)C)CC2)c1 [Example 8, N-[trans-4-({5-[2-(2,6-dimethylphenoxy)-5-(ethanesulfonyl)phenyl]-1-methyl-2-oxo-1,2-dihydropyridin-4-yl}oxy)cyclohexyl]-2,2-dimethylpropanamide] | 627 nM
CCS(=O)(=O)Nc1ccc(Oc2c(C)cc(C(C)(C)O)cc2C)c(-c2cn(C)c(=O)cc2O[C@H]2CC[C@H](NC(=O)OC)CC2)c1 [Example 15, methyl {trans-4-[(5-{5-[(ethanesulfonyl)amino]-2-[4-(2-hydroxypropan-2-yl)-2,6-dimethylphenoxy]phenyl}-1-methyl-2-oxo-1,2-dihydropyridin-4-yl)oxy]cyclohexyl}carbamate] | 102 nM
CCS(=O)(=O)c1ccc(Oc2c(C)cccc2C)c(-c2cn(C)c(=O)cc2O[C@H]2CC[C@H](NC(=O)C3CC(F)(F)C3)CC2)c1 [Example 13, N-[trans-4-({5-[2-(2,6-dimethylphenoxy)-5-(ethanesulfonyl)phenyl]-1-methyl-2-oxo-1,2-dihydropyridin-4-yl}oxy)cyclohexyl]-3,3-difluorocyclobutane-1-carboxamide] | 462 nM
CCS(=O)(=O)c1ccc(Oc2c(C)cccc2C)c(-c2cn(C)c(=O)cc2O[C@H]2CC[C@H](NC(=O)C3CC3)CC2)c1 [Example 11, N-[trans-4-({5-[2-(2,6-dimethylphenoxy)-5-(ethanesulfonyl)phenyl]-1-methyl-2-oxo-1,2-dihydropyridin-4-yl}oxy)cyclohexyl]cyclopropanecarboxamide] | 773 nM
CCS(=O)(=O)c1ccc(Oc2c(C)cc(F)cc2C)c(-c2cn(C)c(=O)cc2O[C@H]2CC[C@H](N(C)C(C)=O)CC2)c1 [Example 20, N-[trans-4-({5-[5-(ethanesulfonyl)-2-(4-fluoro-2,6-dimethylphenoxy)phenyl]-1-methyl-2-oxo-1,2-dihydropyridin-4-yl}oxy)cyclohexyl]-N-methylacetamide] | 461 nM
CCS(=O)(=O)c1ccc(Oc2c(C)cccc2C)c(-c2cn(C)c(=O)cc2O[C@H]2CC[C@H](NC(=O)OC(C)(C)C)CC2)c1 [Example 5, tert-butyl [trans-4-({5-[2-(2,6-dimethylphenoxy)-5-(ethanesulfonyl)phenyl]-1-methyl-2-oxo-1,2-dihydropyridin-4-yl}oxy)cyclohexyl]carbamate] | 1280 nM
CCS(=O)(=O)c1ccc(Oc2c(C)cccc2C)c(-c2cn(C)c(=O)cc2O[C@H]2CC[C@H](NC(=O)OC)CC2)c1 [Example 3, methyl [trans-4-({5-[2-(2,6-dimethylphenoxy)-5-(ethanesulfonyl)phenyl]-1-methyl-2-oxo-1,2-dihydropyridin-4-yl}oxy)cyclohexyl]carbamate] | 1050 nM
CCS(=O)(=O)c1ccc(Oc2c(C)cccc2C)c(-c2cn(C)c(=O)cc2O[C@H]2CC[C@H](NC(C)=O)CC2)c1 [Example 1, N-[trans-4-({5-[2-(2,6-dimethylphenoxy)-5-(ethanesulfonyl)phenyl]-1-methyl-2-oxo-1,2-dihydropyridin-4-yl}oxy)cyclohexyl]acetamide] | 1160 nM
CCS(=O)(=O)c1ccc(Oc2c(C)cccc2C)c(-c2cn(C)c(=O)cc2O[C@H]2CC[C@H](NS(C)(=O)=O)CC2)c1 [Example 4, N-[trans-4-({5-[2-(2,6-dimethylphenoxy)-5-(ethanesulfonyl)phenyl]-1-methyl-2-oxo-1,2-dihydropyridin-4-yl}oxy)cyclohexyl]methanesulfonamide] | 1050 nM
CCS(=O)(=O)c1ccc(Oc2c(C)cc(F)cc2C)c(-c2cn(C)c(=O)cc2O[C@H]2CC[C@H](N3CCCC3=O)CC2)c1 [Example 19, 5-[5-(ethanesulfonyl)-2-(4-fluoro-2,6-dimethylphenoxy)phenyl]-1-methyl-4-{[trans-4-(2-oxopyrrolidin-1-yl)cyclohexyl]oxy}pyridin-2(1H)-one] | 615 nM
CCS(=O)(=O)c1ccc(Oc2c(C)cccc2C)c(-c2cn(C)c(=O)cc2O[C@H]2CC[C@H](NC(=O)C3(C)CC3)CC2)c1 [Example 10, N-[trans-4-({5-[2-(2,6-dimethylphenoxy)-5-(ethanesulfonyl)phenyl]-1-methyl-2-oxo-1,2-dihydropyridin-4-yl}oxy)cyclohexyl]-1-methylcyclopropane-1-carboxamide] | 524 nM
CCS(=O)(=O)c1ccc(Oc2c(C)cccc2C)c(-c2cn(C)c(=O)cc2O[C@H]2CC[C@@H](NC(C)=O)CC2)c1 [Example 2, N-[cis-4-({5-[2-(2,6-dimethylphenoxy)-5-(ethanesulfonyl)phenyl]-1-methyl-2-oxo-1,2-dihydropyridin-4-yl}oxy)cyclohexyl]acetamide] | 2800 nM
CCS(=O)(=O)Nc1ccc(Oc2c(C)cc(C(C)(C)O)cc2C)c(-c2cn(C)c(=O)cc2O[C@H]2CC[C@H](NC(C)=O)CC2)c1 [Example 14, N-{trans-4-[(5-{5-[(ethanesulfonyl)amino]-2-[4-(2-hydroxypropan-2-yl)-2,6-dimethylphenoxy]phenyl}-1-methyl-2-oxo-1,2-dihydropyridin-4-yl)oxy]cyclohexyl}acetamide] | 95.3 nM
CCC(=O)N[C@H]1CC[C@H](Oc2cc(=O)n(C)cc2-c2cc(S(=O)(=O)CC)ccc2Oc2c(C)cccc2C)CC1 [Example 7, N-[trans-4-({5-[2-(2,6-dimethylphenoxy)-5-(ethanesulfonyl)phenyl]-1-methyl-2-oxo-1,2-dihydropyridin-4-yl}oxy)cyclohexyl]propanamide] | 489 nM
COC(=O)N[C@H]1CC[C@H](Oc2cc(=O)n(C)cc2-c2cc(CS(C)(=O)=O)ccc2Oc2c(C)cc(F)cc2C)CC1 [Example 18, methyl {trans-4-[(5-{2-(4-fluoro-2,6-dimethylphenoxy)-5-[(methanesulfonyl)methyl]phenyl}-1-methyl-2-oxo-1,2-dihydropyridin-4-yl)oxy]cyclohexyl}carbamate] | 903 nM

Reference: US20250145587A1, “BROMODOMAIN INHIBITORS” (AbbVie Inc., priority 2016, published 2025)
